In article PMC11593002 (Current Issues in Molecular Biology, 2024):
“And” between values parts separate entries of the source, which are not always exact repeats. Equal values may be shown once. “Also recorded” adds a separate entry of the source.

How the values were obtained:
Type in all cases: cell-based
MCF-10A = test: MTT-dye reduction antiproliferative assay, MCF-10A; settings: for effect of combined treatment with Iscador Qu on IC50 / antiproliferative effect: Iscador Qu both concentrations (50 or 100 µg/mL) or not specified
Excerpt: (§1) Breast cell lines (MCF-10A, MCF-7, and MDA-MB-231) were purchased from the American Type Culture Collection—ATCC (Manassas, VA, USA). MCF-7 and MDA-MB-231 were cultivated in Dulbecco’s modified Eagle’s medium (DMEM), supplemented with 10% fetal bovine serum (FBS), 1% sodium pyruvate, and 1% MEM non-essential amino acids (NEAA) without antibiotics. The non-tumorigenic cell line (MCF-10A) was cultivated in DMEM medium (Sigma-Aldrich, St. Louis, MO, USA) and supplemented with 10% FBS, 1% sodium pyruvate, 1% non-essential amino acids (NEAA), 20 ng/mL human epidermal growth factor (hEGF), 10 μg/mL insulin, and 0.5 μg/mL hydrocortisone without antibiotics. All cell lines were maintained in a humidified atmosphere with 5% CO2 at 37 °C.
(§2) The antiproliferative activity was tested via using the standard MTT-dye reduction assay described by Mosmann. The method is based on the metabolism of the tetrazolium salt MTT to insoluble formazan. The formazan absorption was registered using a microplate reader at λ = 540 nm. The measured absorption is an indicator of cell viability and metabolic activity.

MCF-7 [1] = test: MTT-dye reduction antiproliferative assay, MCF-7
Excerpt: as §1, §2

MDA-MB-231 [2] = test: MTT-dye reduction antiproliferative assay, MDA-MB-231; settings: MDA-MB-231; for effect of combined treatment with Iscador Qu on IC50 / antiproliferative effect: Iscador Qu both concentrations (40 and 80 µg/mL) or not specified
Excerpt: as §1, §2

MDA-MB-231 [3] = test: Cell cycle analysis by propidium iodide staining (FACS), MDA-MB-231
Procedure: (§3) After trypsinization, the cells (MCF7, MDA-MB-231, and MCF10A) were resuspended in medium + 10% FCS and centrifuged (1000 rpm, 5 min); then, the pellet was suspended in PBS (1 mL) and fixed with EtOH. After suspension in 2.5 mL pre-cold 70% EtOH, the cells were incubated on ice for 15 min. The staining procedure was as follows: The pellet was suspended in a 500 μL PI solution in PBS (final concentration of PI 1 μg/mL) and 0.1 mg/mL RNAse A, and 0.05% Triton X-100 was added. Following the incubation for 10 min at 37 °C, the cells were transferred to the flow cytometer, and cell fluorescence was measured. The samples were measured by flow cytometry (LSR II, BD Biosciences, Franklin Lakes, NJ, USA) and analyzed using BD FACS DIVA software v. 6.1.3 (BD Biosciences). The control samples of all cell lines underwent the same treatment but without the adding any anticancer drugs or Iscador Qu.
(§4) In the search of the mechanism of action, the cell cycle arrest induced after treatment with the selected combinations was analyzed. The cell aliquots were collected, and FACS analyses were used to detect the effects of the treatments. A propidium iodide staining assay was performed (Figures S1 and S2).

MCF-7 [4] = test: Cell cycle analysis by propidium iodide staining (FACS), MCF-7
Procedure: as §3, §4

[5] = drug + Iscador Qu 10 µg/mL vs drug alone
[6] = drug + Iscador Qu 20 µg/mL vs drug alone
[7] = drug + Iscador Qu 40 µg/mL vs drug alone
[8] = drug + Iscador Qu 80 µg/mL vs drug alone
[9] = drug + Iscador Qu, concentration not given
[10] = drug + Iscador Qu (selected combinations)

Question: How did the “effect of combined treatment with Iscador Qu on IC50 / antiproliferative effect” value (from here on “effect … on IC50 / antiproliferative effect”) (MCF-10A) turn out when CN(C)C(=O)c1cc2cnc(Nc3ccc(N4CCNCC4)cn3)nc2n1C1CCCC1 [Ribociclib] was run?
Answer: did not significantly affect

Question: And the “fold decrease in IC50” value (MCF-7 [1]; [5])?
Answer: 2 fold

Question: And the “fold decrease in IC50” value (MCF-7 [1]; [6])?
Answer: 3 fold

Question: What about the “reduction in IC50” value (MCF-7 [1]; [6]) of the same compound?
Answer: ~65%

Question: And the “effect … on IC50 / antiproliferative effect” value (MDA-MB-231 [2])?
Answer: did not significantly affect; also recorded: No significant alteration in IC50

Question: How did the “effect … on IC50 / antiproliferative effect” value (MCF-10A) turn out when N.N.[Cl][Pt][Cl] [Cisplatin, cis-diamminedichloroplatinum (II)] was run?
Answer: enhanced the antiproliferative effect

Question: And the “Relative Change of IC50 (%)” value (MCF-7 [1]; [5])?
Answer: 8.36%

Question: And the “Relative Change of IC50 (%)” value (MCF-7 [1]; [6])?
Answer: −29.37%

Question: And the “reduction in IC50” value (MCF-7 [1]; [6])?
Answer: 30%

Question: And the “Relative Change of IC50 (%)” value (MDA-MB-231 [2]; [7])?
Answer: 56.77%

Question: And the “Relative Change of IC50 (%)” value (MDA-MB-231 [2]; [8])?
Answer: 43.80%

Question: What about the “increase in IC50” value (MDA-MB-231 [2]; [8]) of the same compound?
Answer: 44%

Question: What about the “fold increase in IC50 (reduced antiproliferative effect)” value (MDA-MB-231 [2]; [9]) of the same compound?
Answer: 1.5 fold and 1.6 fold

Question: And the “effect on cell cycle of combination vs anticancer drug alone” value (MDA-MB-231 [3]; [10])?
Answer: did not alter the effect

Question: And the “effect on cell cycle” value (MDA-MB-231 [3]; treatment alone)?
Answer: blocked the cells in the S phase

Question: COc1cccc2c1C(=O)c1c(O)c3c(c(O)c1C2=O)C[C@@](O)(C(=O)CO)C[C@@H]3O[C@H]1C[C@H](N)[C@H](O)[C@H](C)O1 [Doxorubicin] was tested. Which “fold decrease in IC50” value (MCF-10A; drug + Iscador Qu 50 µg/mL vs drug alone) did it give?
Answer: about 2 fold

Question: And the “fold decrease in IC50” value (MCF-10A; drug + Iscador Qu 100 µg/mL vs drug alone)?
Answer: about 2 fold

Question: What about the “fold decrease in IC50” value (MCF-7 [1]; [5]) of the same compound?
Answer: about 2 fold

Question: What about the “reduction in IC50 dose” value (MCF-7 [1]; [5]) of the same compound?
Answer: 50%

Question: What about the “fold decrease in IC50” value (MCF-7 [1]; [6]) of the same compound?
Answer: about 2 fold

Question: And the “reduction in IC50 dose” value (MDA-MB-231 [2]; [7])?
Answer: 21%

Question: Which “effect … on IC50 / antiproliferative effect” value (MCF-10A) does the source give for O=C1[O][Pt]2([NH][C@@H]3CCCC[C@H]3[NH]2)[O]C1=O [Oxaliplatin] here?
Answer: increased the antiproliferative effect

Question: And the “effect … on IC50 / antiproliferative effect” value (MCF-7 [1]; Iscador Qu both concentrations (10 and 20 µg/mL) or not specified)?
Answer: increased the antiproliferative effect

Question: And the “Relative Change of IC50 (%)” value (MCF-7 [1]; [5])?
Answer: −47.30%

Question: And the “fold decrease in IC50” value (MCF-7 [1]; [5])?
Answer: ~2 fold

Question: And the “Relative Change of IC50 (%)” value (MCF-7 [1]; [6])?
Answer: −80.76%

Question: What about the “fold decrease in IC50” value (MCF-7 [1]; [6]) of the same compound?
Answer: 5.2 fold

Question: And the “reduction in IC50” value (MCF-7 [1]; [6])?
Answer: 81%

Question: And the “effect … on IC50 / antiproliferative effect” value (MDA-MB-231 [2])?
Answer: increased the antiproliferative effect

Question: What about the “Relative Change of IC50 (%)” value (MDA-MB-231 [2]; [7]) of the same compound?
Answer: −48.45%

Question: What about the “fold decrease in IC50” value (MDA-MB-231 [2]; [7]) of the same compound?
Answer: 1.9 fold

Question: And the “Relative Change of IC50 (%)” value (MDA-MB-231 [2]; [8])?
Answer: −69.56%

Question: And the “fold decrease in IC50” value (MDA-MB-231 [2]; [8])?
Answer: 3.3 fold

Question: And the “reduction in IC50” value (MDA-MB-231 [2]; [8])?
Answer: 70%

Question: And the “effect on cell cycle of combination vs anticancer drug alone” value (MCF-7 [4]; [10])?
Answer: no significant difference

Question: What about the “effect on cell cycle” value (MCF-7 [4]; mono treatment) of the same compound?
Answer: arrest in the G2/M phase

Question: With CC/C(=C(\c1ccccc1)c1ccc(OCCN(C)C)cc1)c1ccccc1 [Tamoxifen] as the compound, how does the “increase in IC50” value (MCF-7 [1]; [9]) read?
Answer: 31%
